From the supplement of paper PMC10331698
± gives the standard deviation of the averaged measurements.

How the values were obtained:
Test in all cases: level (log10 ratio to DMSO vehicle control); higher = higher biomarker level / cell amount than vehicle control
Methotrexate = compound: CN(Cc1cnc2nc(N)nc(N)c2n1)c1ccc(C(=O)N[C@@H](CCC(=O)O)C(=O)O)cc1 [Methotrexate]; details: in DMSO
Description: (§1)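 BioMAP Diversity Plus panel of 12 human primary cell co-culture systems (3C, 4H, LPS, SAg, BT, BF4T, BE3C, CASM3C, HDF3CGF, KF3CT, MyoF, Mphg). Compounds were added 1 h before stimulation and left for 24 h (MyoF 48 h; BT 72 h for soluble read-outs or 6 d for IgG). Biomarkers were read by ELISA, cytotoxicity by SRB, PBMC viability and proliferation by Alamar Blue. Each well value was divided by the mean of 8 DMSO control wells on the same plate and log10 transformed; duplicate blinded samples were tested at 4 concentrations.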

Perfluorooctanoic acid = compound: O=C(O)C(F)(F)C(F)(F)C(F)(F)C(F)(F)C(F)(F)C(F)(F)C(F)(F)F [Perfluorooctanoic acid]; details: in DMSO
Description: as §1

[1] = compound: O=P(O)(O)CCC(F)(F)C(F)(F)C(F)(F)C(F)(F)C(F)(F)C(F)(F)F [2-(Perfluorohexyl)ethylphosphonic acid]; details: in DMSO
Description: as §1

[2] = compound: O=S(=O)(OCC(F)(F)F)C(F)(F)C(F)(F)C(F)(F)C(F)(F)F [2,2,2-Trifluoroethyl perfluorobutanesulfonate]; details: in DMSO
Description: as §1

[3] = compound: OCC(F)(F)C(F)(F)C(F)(F)C(F)(F)C(F)(F)C(F)(F)C(F)(F)C(F)(F)C(F)(F)C(F)(F)C(F)(F)F [11:1 Fluorotelomer alcohol]; details: in DMSO
Description: as §1

[4] = compound: OCCCC(F)(F)C(F)(F)C(F)(F)C(F)(F)C(F)(F)C(F)(F)C(F)(F)C(F)(F)F [3-(Perfluorooctyl)propanol]; details: 6700 nM; in DMSO
Description: as §1

[5] = compound: OCCCCC(F)(F)C(F)(F)C(F)(F)C(F)(F)F [4:4 Fluorotelomer alcohol]; details: in DMSO
Description: as §1

Test System	level (log10) (Methotrexate; 1500 nM)	level (log10) (Methotrexate; 4400 nM)	level (log10) (Methotrexate; 13000 nM)	level (log10) (Methotrexate; 40000 nM)	level (log10) (Perfluorooctanoic acid; 6700 nM)	level (log10) (Perfluorooctanoic acid; 20000 nM)	level (log10) (Perfluorooctanoic acid; 60000 nM)	level (log10) ([1]; 6700 nM)	level (log10) ([1]; 20000 nM)	level (log10) ([1]; 60000 nM)	level (log10) ([2]; 6700 nM)	level (log10) ([2]; 20000 nM)	level (log10) ([2]; 60000 nM)	level (log10) ([3]; 1100 nM)	level (log10) ([3]; 3300 nM)	level (log10) ([3]; 10000 nM)	level (log10) [4]	level (log10) ([5]; 6700 nM)	level (log10) ([5]; 20000 nM)	level (log10) ([5]; 60000 nM)
BE3C:IL-1alpha	-0.012 ± 0.0085	-0.0255 ± 0.023	-0.0095 ± 0.054	0.007 ± 0.033	0.0075 ± 0.00071	-0.0035 ± 0.0035	0.0185 ± 0.016	-0.01 ± 0.0014	-0.0245 ± 0.005	-0.007 ± 0.023	0.0045 ± 0.011	0.0025 ± 0.0078	0.015 ± 0.013	-0.011 ± 0.018	-0.0325 ± 0.0021	-0.029 ± 0.02	0.0155 ± 0.03	0.0255 ± 0.00071	0.0095 ± 0.011	0.0155 ± 0.021
3C:Proliferation	0.0185 ± 0.056	0.0495 ± 0.013	0.0285 ± 0.019	-0.086 ± 0.04	-0.0155 ± 0.015	-0.003 ± 0.0099	-0.08 ± 0.02	-0.066 ± 0.057	-0.035 ± 0.017	-0.101 ± 0.081	0.002 ± 0.062	-0.025 ± 0.04	-0.0475 ± 0.028	-0.189 ± 0.012	-0.436 ± 0.042	-0.338 ± 0.051	-0.385 ± 0.027	-0.018 ± 0.031	0.0115 ± 0.011	-0.009 ± 0.054
BF4T:CD106/VCAM-1	0.014 ± 0.024	0.0165 ± 0.029	0.0245 ± 0.016	0.0245 ± 0.011	-0.037 ± 0.017	-0.0345 ± 0.032	0 ± 0.065	-0.0195 ± 0.03	-0.0165 ± 0.016	0.0055 ± 0.047	-0.0135 ± 0.07	-0.0035 ± 0.074	-0.049 ± 0.027	0.0045 ± 0.016	-0.021 ± 0.025	-0.016 ± 0.02	-0.014 ± 0.0099	-0.0145 ± 0.0064	-0.0205 ± 0.018	0.0135 ± 0.043
SAg:Proliferation	-0.085 ± 0.011	-0.199 ± 0.044	-0.253 ± 0.016	-0.263 ± 0.023	0.044 ± 0.0085	0.041	0.016 ± 0.025	0.0125 ± 0.0078	-0.0165 ± 0.019	-0.036 ± 0.03	-0.0055 ± 0.032	-0.053 ± 0.023	-0.048 ± 0.018	-0.248 ± 0.083	-0.364 ± 0.13	-0.473 ± 0.35	-0.005 ± 0.023	-0.026 ± 0.014	-0.0185 ± 0.0035	-0.005 ± 0.047
BF4T:MMP-1	0.0195 ± 0.015	0.0005 ± 0.016	-0.012 ± 0.03	0.0015 ± 0.011	-0.002 ± 0.0057	-0.0005 ± 0.0078	0.0265 ± 0.018	-0.0045 ± 0.0092	-0.004	0.0035 ± 0.026	-0.0035 ± 0.015	-0.0005 ± 0.015	-0.0095 ± 0.0021	-0.0095 ± 0.005	-0.01	-0.0015 ± 0.016	0.022 ± 0.0099	0.0075 ± 0.018	0.0045 ± 0.025	0.009 ± 0.03
LPS:IL-1alpha	-0.003 ± 0.024	0.003 ± 0.017	0.005 ± 0.031	0.0465 ± 0.077	0.0135 ± 0.0035	-0.0205 ± 0.043	-0.007 ± 0.017	0.0055 ± 0.0092	-0.026 ± 0.014	-0.0195 ± 0.087	-0.061 ± 0.079	-0.104 ± 0.041	-0.172 ± 0.052	-0.0655 ± 0.0092	-0.14 ± 0.0035	-0.144 ± 0.012	-0.267 ± 0.065	-0.01 ± 0.04	-0.021 ± 0.028	0.014 ± 0.048
BT:sIL-17F	-0.039 ± 0.11	-0.02 ± 0.025	-0.064 ± 0.088	-0.179 ± 0.075	0.032 ± 0.04	0.0665 ± 0.11	0.095 ± 0.035	0.0655 ± 0.084	0.008 ± 0.0014	-0.0175 ± 0.069	0.003 ± 0.023	0.0145 ± 0.0064	-0.0275 ± 0.005	0.308 ± 0.0078	0.319 ± 0.096	0.33 ± 0.077	-0.101 ± 0.015	-0.0645 ± 0.0092	-0.107 ± 0.015	-0.161 ± 0.15
LPS:CCL2/MCP-1	-0.0335 ± 0.074	-0.03 ± 0.055	-0.0295 ± 0.1	-0.0565 ± 0.064	-0.0035 ± 0.00071	0.013	0.0525 ± 0.022	-0.016	-0.0075 ± 0.005	-0.0105 ± 0.019	-0.0345 ± 0.012	-0.0435 ± 0.022	-0.101 ± 0.067	-0.001 ± 0.0028	-0.011 ± 0.011	-0.009 ± 0.035	-0.0925 ± 0.13	-0.006 ± 0.0071	-0.002 ± 0.023	-0.006 ± 0.011
BF4T:CCL26/Eotaxin-3	0.057 ± 0.0014	-0.005 ± 0.14	0.0465 ± 0.029	0.031 ± 0.072	-0.023 ± 0.023	-0.073 ± 0.013	-0.11 ± 0.06	-0.0135 ± 0.022	-0.04 ± 0.0099	-0.034 ± 0.079	-0.0015 ± 0.016	-0.018 ± 0.0071	-0.014 ± 0.037	-0.012 ± 0.0042	-0.003 ± 0.011	-0.0015 ± 0.0078	-0.029 ± 0.017	-0.0205 ± 0.046	-0.0015 ± 0.015	0.0105 ± 0.047
BF4T:CXCL8/IL-8	0.035 ± 0.027	0.027 ± 0.071	0.041 ± 0.057	0.0365 ± 0.12	-0.0035 ± 0.013	-0.0085 ± 0.0035	-0.0025 ± 0.016	-0.0405 ± 0.00071	-0.0595 ± 0.0064	-0.034 ± 0.0085	0.0295 ± 0.0064	0.017	0.0385 ± 0.044	0.001 ± 0.0057	0.0145 ± 0.037	0.028 ± 0.042	0.006 ± 0.023	-0.013 ± 0.021	0.018 ± 0.0057	0.0185 ± 0.005
4H:CD62P/P-selectin	-0.019 ± 0.0028	-0.0195 ± 0.032	-0.0045 ± 0.086	-0.0055 ± 0.073	-0.005 ± 0.013	0.001 ± 0.0014	0.05 ± 0.02	0.022 ± 0.0042	-0.01 ± 0.017	-0.0585 ± 0.021	-0.0365 ± 0.016	-0.034 ± 0.0085	-0.0525 ± 0.015	-0.111 ± 0.042	-0.095 ± 0.079	-0.139 ± 0.13	-0.0465 ± 0.022	0.023 ± 0.0028	0.019 ± 0.013	0.0115 ± 0.005
LPS:CD40	-0.033 ± 0.018	-0.0475 ± 0.011	-0.009 ± 0.028	-0.0155 ± 0.03	0.006 ± 0.025	-0.032 ± 0.057	-0.0815 ± 0.022	0.002 ± 0.062	-0.012 ± 0.018	0.0205 ± 0.028	-0.014 ± 0.017	-0.0495 ± 0.0035	-0.104 ± 0.064	0.0305 ± 0.028	0.0205 ± 0.0035	-0.0275 ± 0.00071	-0.039 ± 0.018	-0.0175 ± 0.063	-0.0095 ± 0.028	-0.042 ± 0.027
BT:sIL-17A	-0.0735 ± 0.14	-0.02 ± 0.058	-0.002 ± 0.11	-0.197 ± 0.18	0.009 ± 0.048	-0.165 ± 0.11	-0.0845 ± 0.12	0.018 ± 0.11	-0.07 ± 0.017	-0.135 ± 0.059	0.053 ± 0.2	0.214 ± 0.093	0.184 ± 0.1	0.329 ± 0.16	0.401 ± 0.032	0.325 ± 0.06	0.023 ± 0.028	0.026 ± 0.12	-0.003 ± 0.0099	-0.111 ± 0.061
4H:CCL2/MCP-1	-0.02 ± 0.011	-0.035 ± 0.02	-0.0215 ± 0.023	0.0105 ± 0.0021	-0.028 ± 0.0071	-0.0395 ± 0.013	-0.0555 ± 0.054	-0.0295 ± 0.0092	-0.031 ± 0.025	-0.0215 ± 0.054	-0.0345 ± 0.015	-0.046 ± 0.0014	-0.0385 ± 0.021	0.0335 ± 0.033	0.0495 ± 0.00071	0.0835 ± 0.023	0.0195 ± 0.0078	0.0135 ± 0.011	-0.016 ± 0.023	0.023 ± 0.055
